SMILES | melting point [°C]
CC(C)C(C(=O)O)n1cncn1 (configuration not stated) | 177 to 179
Nc1ccccc1Cc1ccccc1 | 55 to 57
Cc1cccc(OCC(O)CN)c1 (configuration not stated) | 75 to 77
O=C(O)c1oc2ccccc2c1CSC1=NCCS1 | 190 to 192
O=C(O)Cc1n[nH]c2ccccc12 | 167 to 169
N#CCCNC(=O)CCl | 96 to 98
CSc1nc(C(=O)O)cc(C2CC2)n1 | 135 to 137
CC(N)c1ccc(-c2cncnc2)cc1 (configuration not stated) | 47 to 49
O=C1NC(=O)C2CC12 (configuration not stated) | 94 to 96
O=C(O)Cc1csc(-c2cccc(C(F)(F)F)c2)n1 | 109 to 111
CNc1cc(-c2ccccc2)[nH]n1 | 122 to 124
O=C1NC(=O)C(c2ccccc2)(C(F)(F)F)N1 (configuration not stated) | 240 to 242
O=C(O)C1Cc2ccccc2N1 (configuration not stated) | 168 to 170
Nc1cccc(-c2nc(C3CC3)no2)c1 | 89 to 91
c1ccc2[nH]c(Cc3nc4ccccc4s3)nc2c1 | 194 to 196
N#Cc1ccc(N2CCOC2=O)nc1 | 186 to 188
O=C(O)CCSCc1cn2ccccc2n1 | 95 to 98
CC1(C)CNc2ccccc2S1 | 41 to 43
O=C(O)c1cc(Br)cc(Cl)c1O | 207 to 209
NC(=O)c1cc(F)ccc1N | 143 to 145
CS(=O)(=O)c1ccc(OCCN)cc1 | 63 to 65
CCCCCCCC(=O)NCC(=O)O | 104 to 106
O=C(O)/C=C/C1=C(Cl)c2ccccc2S1(=O)=O | 266 to 268
BrCCCOc1ccc2ccccc2c1 | 56 to 58
COc1ccc([N+](=O)[O-])cc1CN | 101 to 103

SMILES | melting point [°C]
Cc1nsc(N)c1C(=O)O | 158 to 160
CN(C)S(=O)(=O)c1ccc(-c2csc(N)n2)cc1 | 243 to 245
O=C1CC(c2cccc(F)c2)CN1 (configuration not stated) | 77 to 79
CSc1nn(-c2ccccc2)c(N)c1C#N | 135 to 137
N#CCN1CCOCC1 | 62 to 64
CC(C)NC(=O)CN(C)CC(N)=S | 140 to 142
CC(C)(C)OC(=O)N1CCOCC1C#N (configuration not stated) | 95 to 97
N#Cc1ccc(-c2nnc(CCl)o2)cc1 | 143 to 145
Nc1nnc(-c2ccc(Cl)cc2)o1 | 260 to 262
O=CC1=C(Sc2nc3ccccc3o2)CCCC1 | 93 to 95
Cc1nc(S(=O)(=O)N2CCC(C(=O)O)CC2)cn1C | 262 to 264
CC(=O)N(C)CCC(N)=S | 109 to 111
Nc1nc2cc(Cl)cc(Cl)c2o1 | 247 to 249
Clc1nc(CN2CCCCC2)nc2scc(-c3ccccc3)c12 | 79 to 81
COC(=O)C1CC(OC)=CC1=O (configuration not stated) | 47 to 49
Cc1cc(C=CC(=O)O)cnc1N | 229 to 231
O=C(CCl)NCC1CCSCC1 | 83 to 85
NC(CCO)c1ccc(F)cc1 (configuration not stated) | 67 to 69
Nc1nc(Cc2ccc(Br)cc2)cs1 | 146 to 148
O=[N+]([O-])c1c(NC2CC2)cccc1NC1CC1 | 116 to 118
CC(C)Cn1cc(C(=O)O)c2ccccc21 | 151 to 153
O=C(O)C1(c2cccc(Cl)c2)CCCC1 | 150 to 152
O=S(CCCl)c1cc(Cl)ccc1Cl (configuration not stated) | 68 to 70
COc1cc(CC#N)cc(Cl)c1OCC(F)(F)F | 98 to 100
COc1ccc(Br)cc1NC(=O)C1CCC1 | 84 to 86

SMILES | melting point [°C]
Cn1c(C2CC2)nc2cc(N)ccc21 | 99 to 101
Sc1nnc(N2CCCC2)s1 | 179 to 181
NCc1ccc(-c2nc3ccccc3s2)o1 | 124 to 126
Cc1cc(S(N)(=O)=O)sc1Br | 149 to 151
CN(C)Cc1nc(S)c2ccccc2n1 | 131 to 133
CC(C)c1ccc(C2(C(=O)O)CCC2)cc1 | 119 to 121
C#Cc1c(F)cccc1F | 34 to 36
Nc1ccc(OCCO)nc1 | 63 to 65
O=C1CCc2c(F)cc(F)cc21 | 95 to 97
NCCCc1nc2ccccc2[nH]1 | 210 to 212
C=CCn1c(S)nc2sccc2c1=O | 212 to 214
CC(Cl)C(=O)Nc1sc2c(c1C#N)CCC2 (configuration not stated) | 204 to 206
C1CCC(C2CCNCC2)CC1 | 73 to 75
CC(N)c1ccccc1-c1ccccc1 (configuration not stated) | 76 to 78
[N-]=[N+]=NCC(=O)NCc1ccccc1 | 39 to 41
Nc1c(-c2ccccc2)nn(-c2ccccc2)c1N | 89 to 91
CN(C)C=CC(=O)C(F)(F)F | 52 to 54
Nc1nonc1I | 90 to 92
Cc1ccc(N)cc1S(=O)(=O)N1CCCCC1 | 105 to 107
O=C(O)CCc1nc(-c2cccs2)no1 | 108 to 110
c1c[nH]c(C2CCCN2)c1 (configuration not stated) | 75 to 77
Nc1c(C(=O)O)ccnc1Br | 224 to 226
COCCNc1nnnn1C | 59 to 61

Continued, values first:

melting point [°C] | SMILES
65 to 67 | CCOCCN1C(=O)C(=O)c2ccccc21
201 to 203 | O=C(O)c1ccc(COc2ccc(Cl)cc2)cc1
149 to 151 | COc1ccccc1-c1ccccc1C(=O)O
90 to 95 | CC(=O)c1cccc(N2CCCC2=O)c1
105 to 106 | CCOC(=O)c1sc(-c2ccc(Br)cc2)cc1N
136 to 138 | O=C(O)CNC(=O)c1ccc(Cl)c(Cl)c1
108 to 110 | CC(=O)CC(=O)Nc1cccc(Br)c1
108 to 112 | CCN(CC)S(=O)(=O)c1ccc(C)c(N)c1
157 to 159 | COC(=O)c1ccc(-n2c(C)cc(C(=O)CCl)c2C)cc1
122 to 124 | O=C(O)C1CCCN(C(=O)Cc2ccc(F)cc2)C1 (configuration not stated)
63 to 65 | COc1ccc(CCCC(=O)O)cc1F
114 to 116 | Cc1ccc(SCCNC(=O)CCl)cc1
208 to 210 | CC(C)(C)CNC(=O)Nc1ccc(Cl)c(C(=O)O)c1
225 to 227 | COC(=O)c1ccc2n[nH]c(=O)n2c1
29 to 31 | COC(=O)CCCOc1ccccc1F
133 to 135 | CC(=O)N(C)c1ccc(S(=O)(=O)Cl)cc1
122 to 124 | CS(=O)(=O)c1cccc(C(=O)c2ccc(F)c(F)c2)c1
303 to 305 | Cc1cc(C)n2cnc(C(N)=O)c2n1
159 to 163 | CCOC(=O)c1[nH]c2c(c1C)C(=O)CC(C)(C)C2
194 to 196 | Cc1ccc(NS(=O)(=O)c2cccc(C(=O)O)c2)c(C)c1
114 to 116 | Cc1nc2c(cnn2-c2cccc(Cl)c2)c(=O)[nH]1
105 to 107 | CCOc1cc(C=CC(=O)O)ccc1OCCOc1ccc(F)cc1
263 to 265 | Cc1nc(-c2cccnc2)[nH]c(=O)c1CC(=O)O

melting point [°C] | SMILES
59 to 61 | O=C(CCl)N1CCC(c2nc3ccccc3s2)CC1
60 to 62 | COc1cc(C)ccc1Oc1ccc(F)cc1N
173 to 175 | Cc1ccc(-n2nnc(C(=O)O)c2C2CC2)cc1
152 to 154 | Cc1ccc(S(=O)(=O)N(C)c2ccc(OCC(=O)O)cc2)cc1
163 to 165 | COC(=O)c1sc(N)c(C(=O)OC)c1CBr
74 to 76 | CC(C)C(=O)Nc1ccc(N)cc1
121 to 123 | O=C(CBr)c1ccc(S(=O)(=O)N2CCCC2)cc1
75 to 77 | CC(C)c1cc(NC(=O)CCl)on1
208 to 210 | O=C(O)c1ccc(-c2cccc(C(F)(F)F)c2)cc1F
125 to 127 | CC(=O)c1csc(-c2csc(C)n2)c1
93 to 95 | CC(=O)c1cccc(OCC(=O)N(C)C)c1
201 to 203 | CC(C)(C)OC(=O)N1CC=C(n2c(=O)[nH]c3ccccc32)CC1
194 to 196 | CC(=O)N1c2ccccc2C[C@H]1C(=O)O
94 to 96 | CC(C)(C)c1ccc(OCCC(=O)O)cc1
44 to 46 | COC(=O)c1ccc(CBr)cc1OC
244 to 246 | O=C(O)c1cc(-c2ccc(Cl)cc2)nc2ccccc12
184 to 186 | COc1ccc(/C=C/C(=O)O)cc1S(=O)(=O)Cl
179 to 181 | COc1ccc(C(=O)O)cc1-c1ccn(C)n1
131 to 133 | COC(=O)c1cccc(S(N)(=O)=O)c1
199 to 201 | NC(=O)COc1ccccc1C(=O)O
375 to 377 | O=C(O)c1cc(=O)[nH]c2ccc([N+](=O)[O-])cc12
197 to 199 | NC(=O)CCNC(=O)c1ccccc1N
122 to 130 | CSCCC(NC(=O)COc1ccccc1)C(=O)O (configuration not stated)

melting point [°C] | SMILES
139 to 141 | CC(=O)Oc1cc(C)ccc1C(=O)O
134 to 136 | CCNC(=O)N1CCc2ccc(N)cc21
82 to 84 | CCS(=O)(=O)Nc1ccc(S(=O)(=O)Cl)c(C)c1
159 to 161 | Cc1c(C(=O)O)nnn1-c1ccc(OC(C)C)cc1
148 to 150 | Nc1ccc(NCCCC(=O)O)cc1
170 to 172 | Cc1ccc2c(CCl)cc(=O)oc2c1
144 to 146 | CCCCCn1nc(C(=O)O)c2ccccc2c1=O
151 to 153 | Cc1ccc(NC(=O)C(C)Cl)cc1S(=O)(=O)N1CCOCC1 (configuration not stated)
143 to 145 | O=C(Nc1ccccc1)C1CCN(C(=O)CCl)CC1
169 to 171 | N#Cc1ccc(NC(=O)NC(CCC(=O)O)C(=O)O)cc1 (configuration not stated)
194 to 196 | COC(=O)c1cc(N)cc(S(C)(=O)=O)c1
182 to 184 | Cc1oc2cc(O)ccc2c(=O)c1-c1ccccc1Cl
142 to 146 | CCOCc1cc(C(=O)O)ccc1OC
203 to 205 | Nc1ccc(S(=O)(=O)Nc2ccccc2Cl)cc1N
248 to 250 | O=C1CCc2cc(C(=O)c3c(F)cccc3F)ccc2N1
64 to 66 | COC(=O)c1ccc(S(=O)(=O)Cl)c(Cl)c1
277 to 279 | O=C(O)Cn1cnc2ccc(Br)cc2c1=O
113 to 115 | NC(=O)c1cccc(CO)c1
97 to 99 | CC(C)(C)OC(=O)Nc1cccc(CC(=O)O)c1
94 to 96 | CCOC(=O)c1nc(-c2ccccc2)oc1CBr
106 to 108 | COc1cc(C)ccc1Oc1ccc(N)cn1
249 to 251 | Nc1cccc(-c2nccn2CC(=O)O)c1
104 to 106 | CC(=O)c1cccc(N2C(=O)C=CC2=O)c1
